How the values were obtained:
Assay type in all cases: functional, cell-based
CCRF-CEM = experiment: Cytotoxicity in human CEM cells assessed as reduction in cell viability incubated for 72 hrs by calcein AM cytotoxicity assay
MCF7 = experiment: Cytotoxicity in human MCF7 cells assessed as reduction in cell viability incubated for 72 hrs by calcein AM cytotoxicity assay
HeLa = experiment: Cytotoxicity in human HeLa cells assessed as reduction in cell viability incubated for 72 hrs by calcein AM cytotoxicity assay
G-361 = experiment: Cytotoxicity in human G361 cells assessed as reduction in cell viability incubated for 72 hrs by calcein AM cytotoxicity assay
BJ = experiment: Cytotoxicity in human BJ cells assessed as reduction in cell viability incubated for 72 hrs by calcein AM cytotoxicity assay

Row | Compound | IC50 (CCRF-CEM; Homo sapiens, CCRF-CEM, 72 h) [µM] | IC50 (MCF7; Homo sapiens, MCF7, 72 h) [µM] | IC50 (HeLa; Homo sapiens, HeLa, 72 h) [µM] | IC50 (G-361; Homo sapiens, G-361, 72 h) [µM] | IC50 (BJ; Homo sapiens, BJ, 72 h) [µM] | IC50 (MCF7; mcf7) [µM] | IC50 (G-361; g-361) [µM] | IC50 (BJ; bj) [µM] | IC50 (HeLa; hela) [µM] | IC50 (CCRF-CEM; ccrf-cem) [µM]
1 | CC(=O)OC[C@H]1O[C@@H](OC(=O)[C@]23CC[C@@H](C(C)C)[C@@H]2[C@H]2CC[C@@H]4[C@@]5(C)CC[C@H](O)C(C)(C)[C@@H]5CC[C@@]4(C)[C@]2(C)CC3)[C@H](OC(C)=O)[C@@H](OC(C)=O)[C@H]1OC(C)=O | 8.6 | 2.8 | 5.1 | 4.7 | > 50 | – | – | – | – | –
2 | CC(=O)O[C@H]1CC[C@]2(C)[C@H]3CC[C@@H]4C5=C(C(C)C)C(=O)C(=O)[C@]5(C(=O)OCCN5CCOCC5)CC[C@@]4(C)[C@]3(C)CC[C@H]2C1(C)C | 8.1 | 18.3 | 5.5 | 2.2 | 25.3 | – | – | – | – | –
3 | C=C(C)[C@@H]1CC[C@]2(C(=O)OCCOCCOC)CC[C@]3(C)[C@H](CC[C@@H]4[C@@]5(C)CC[C@H](O)C(C)(C)[C@@H]5CC[C@]43C)[C@@H]12 | 30.7 | 36.4 | 14.5 | 26.9 | > 50 | – | – | – | – | –
4 | C=C(C)[C@@H]1CC[C@]2(C(=O)O[C@@H]3O[C@H](CO)[C@H](O)[C@H](O)[C@H]3O)CC[C@]3(C)[C@H](CC[C@@H]4[C@@]5(C)CC[C@H](O)C(C)(C)[C@@H]5CC[C@]43C)[C@@H]12 | > 50 | > 50 | > 50 | > 50 | > 50 | – | – | – | – | –
5 | CC(C)[C@@H]1CC[C@]2(C(=O)OCCN3CCCC3)CC[C@]3(C)[C@H](CC[C@@H]4[C@@]5(C)CC[C@H](O)C(C)(C)[C@@H]5CC[C@]43C)[C@@H]12 | 2.8 | 10.3 | 7.7 | 8.2 | 17 | – | – | – | – | –
6 | CC(=O)O[C@H]1CC[C@]2(C)[C@H]3CC[C@@H]4C5=C(C(C)C)C(=O)C[C@]5(C(=O)O[C@@H]5O[C@H](CO)[C@H](O)[C@H](O)[C@H]5O)CC[C@@]4(C)[C@]3(C)CC[C@H]2C1(C)C | 18.8 | 37 | 38.8 | 42.7 | 48.2 | – | – | – | – | –
7 | COCCOC(=O)[C@]1(COC(C)=O)CC[C@]2(C)[C@H](CC[C@@H]3[C@@]4(C)CC[C@H](OC(C)=O)C(C)(C)[C@@H]4CC[C@]32C)C1=O | > 50 | > 50 | > 50 | > 50 | > 50 | – | – | – | – | –
8 | CC(C)[C@@H]1CC[C@]2(C(=O)OCC(=O)OCc3ccccc3)CC[C@]3(C)[C@H](CC[C@@H]4[C@@]5(C)CC[C@H](O)C(C)(C)[C@@H]5CC[C@]43C)[C@@H]12 | 24.1 | > 50 | > 50 | > 50 | > 50 | – | – | – | – | –
9 | CC(=O)OC[C@@]1(C(=O)OCCN2CCCCC2)CC[C@]2(C)[C@H](CC[C@@H]3[C@@]4(C)CC[C@H](OC(C)=O)C(C)(C)[C@@H]4CC[C@]32C)[C@@H]1O | > 50 | 27.2 | > 50 | > 50 | > 50 | – | – | – | – | –
10 | CC(=O)O[C@H]1CC[C@]2(C)[C@H]3CC[C@@H]4C5=C(C(C)C)C(=O)C[C@]5(C(=O)OCCN5CCCC5)CC[C@@]4(C)[C@]3(C)CC[C@H]2C1(C)C | 13.3 | 7.3 | 7.7 | 6.5 | 19.1 | – | – | – | – | –
11 | CC(=O)OC[C@H]1O[C@@H](OC(=O)[C@]23CC[C@@H](C(C)C)[C@@H]2[C@H]2CC[C@@H]4[C@@]5(C)CC[C@H](O)C(C)(C)[C@@H]5CC[C@@]4(C)[C@]2(C)CC3)[C@H](OC(C)=O)[C@@H](OC(C)=O)[C@@H]1OC(C)=O | 18.6 | 13.9 | 15.6 | 8.1 | > 50 | – | – | – | – | –
12 | CC(=O)OC[C@@]1(C(=O)OCCBr)CC[C@]2(C)[C@H](CC[C@@H]3[C@@]4(C)CC[C@H](OC(C)=O)C(C)(C)[C@@H]4CC[C@]32C)[C@@H]1O | > 50 | > 50 | > 50 | > 50 | > 50 | – | – | – | – | –
13 | CC(=O)OC[C@@]1(C(=O)OCC(=O)O)CC[C@]2(C)[C@H](CC[C@@H]3[C@@]4(C)CC[C@H](OC(C)=O)C(C)(C)[C@@H]4CC[C@]32C)C1=O | 32.4 | > 50 | > 50 | > 50 | 7 | – | – | – | – | –
14 | COCCOC(=O)[C@]12CC[C@@H](C(C)C)[C@@H]1[C@H]1CC[C@@H]3[C@@]4(C)CC[C@H](O)C(C)(C)[C@@H]4CC[C@@]3(C)[C@]1(C)CC2 | 38.4 | 44.4 | 21.5 | 38.6 | 26.5 | – | – | – | – | –
15 | CC(=O)OC[C@H]1O[C@@H](OC(=O)[C@]2(COC(C)=O)CC[C@]3(C)[C@H](CC[C@@H]4[C@@]5(C)CC[C@H](OC(C)=O)C(C)(C)[C@@H]5CC[C@]43C)[C@@H]2O)[C@H](OC(C)=O)[C@@H](OC(C)=O)[C@H]1OC(C)=O | > 50 | > 50 | > 50 | > 50 | > 50 | – | – | – | – | –
16 | C=C(C)[C@@H]1CC[C@]2(C(=O)OCC(=O)O)CC[C@]3(C)[C@H](CC[C@@H]4[C@@]5(C)CC[C@H](O)C(C)(C)[C@@H]5CC[C@]43C)[C@@H]12 | > 50 | > 50 | > 50 | > 50 | > 50 | – | – | – | – | –
17 | CC(=O)OC[C@@]1(C(=O)OCC(=O)OCc2ccccc2)CC[C@]2(C)[C@H](CC[C@@H]3[C@@]4(C)CC[C@H](OC(C)=O)C(C)(C)[C@@H]4CC[C@]32C)C1=O | > 50 | > 50 | > 50 | > 50 | > 50 | – | – | – | – | –
18 | CC(=O)O[C@H]1CC[C@]2(C)[C@H]3CC[C@@H]4C5=C(C(C)C)C(=O)C[C@]5(C(=O)OCC(=O)O)CC[C@@]4(C)[C@]3(C)CC[C@H]2C1(C)C | 24.2 | > 50 | 47.9 | 45.6 | > 50 | – | – | – | – | –
19 | CC(=O)OC[C@@]1(C(=O)OCCN2CCCC2)CC[C@]2(C)[C@H](CC[C@@H]3[C@@]4(C)CC[C@H](OC(C)=O)C(C)(C)[C@@H]4CC[C@]32C)[C@@H]1O | 8.3 | 10 | 10.6 | 7.4 | 14.1 | – | – | – | – | –
20 | C=C(C)[C@@H]1CC[C@]2(C(=O)OCCOC)CC[C@]3(C)[C@H](CC[C@@H]4[C@@]5(C)CC[C@H](O)C(C)(C)[C@@H]5CC[C@]43C)[C@@H]12 | 32.8 | 35.2 | 32.4 | 30.3 | 43.7 | – | – | – | – | –
21 | C=C(C)[C@@H]1CC[C@]2(C(=O)O[C@@H]3O[C@H](COC(C)=O)[C@@H](OC(C)=O)[C@H](OC(C)=O)[C@H]3OC(C)=O)CC[C@]3(C)[C@H](CC[C@@H]4[C@@]5(C)CC[C@H](O)C(C)(C)[C@@H]5CC[C@]43C)[C@@H]12 | > 50 | > 50 | > 50 | > 50 | > 50 | – | – | – | – | –
22 | CC(C)[C@@H]1CC[C@]2(C(=O)OCCN3CCCCC3)CC[C@]3(C)[C@H](CC[C@@H]4[C@@]5(C)CC[C@H](O)C(C)(C)[C@@H]5CC[C@]43C)[C@@H]12 | 26.7 | – | – | – | – | 26.1 | 29.9 | 46.5 | – | –
23 | C=C(C)[C@@H]1CC[C@]2(C(=O)OCCN3CCOCC3)CC[C@]3(C)[C@H](CC[C@@H]4[C@@]5(C)CC[C@H](O)C(C)(C)[C@@H]5CC[C@]43C)[C@@H]12 [listing 1 of 2 here] | > 50 | – | – | – | – | – | – | – | > 50 | –
24 | C=C(C)[C@@H]1CC[C@]2(C(=O)OCCN3CCCC3)CC[C@]3(C)[C@H](CC[C@@H]4[C@@]5(C)CC[C@H](O)C(C)(C)[C@@H]5CC[C@]43C)[C@@H]12 | – | – | – | – | – | 14.3 | 7.1 | 15.5 | – | 2.3
25 | C=C(C)[C@@H]1CC[C@]2(C(=O)OCCN3CCOCC3)CC[C@]3(C)[C@H](CC[C@@H]4[C@@]5(C)CC[C@H](O)C(C)(C)[C@@H]5CC[C@]43C)[C@@H]12 [listing 2 of 2 here] | – | > 50 | 50 | > 50 | > 50 | – | – | – | – | –

Reference: ChEMBL document CHEMBL4190365, “Synthesis and antiproliferative properties of new hydrophilic esters of triterpenic acids” (Eur J Med Chem, 2017)
